Experimental findings from PubChem BioAssay (NCI) are described below.

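All cell lines were grown in 96-well plates and treated with compound for 48 hours. Here, GI50 denotes the concentration required for 50% inhibition of growth. The concentration for full growth arrest is given as TGI.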 Bounds are passed on as bounds.

Among the test systems are NCI-H23 lung; EKVX NSCLC; SN12C renal; OVCAR-3 ovarian; MDA-MB-231 breast; RPMI-8226 leukemia; A498 renal; MALME-3M melanoma; NCI-H460 lung; SNB-75 CNS; SK-MEL-2 melanoma; UO-31 renal; OVCAR-8 ovarian; SR leukemia; MDA-MB-435; HL-60(TB) leukemia.
Common to all, as to assay: NCI-60 cell line screen, 48 h

For the molecule `NS(=O)(=O)c1nc(S(=O)(=O)O)c2[nH]cnc2n1`, the TGI with NCI-H23 lung, in the experiment on EKVX NSCLC, in the experiment with SN12C renal, with OVCAR-3 ovarian, with MDA-MB-231 breast and in the experiment with RPMI-8226 leukemia was over 100 µM throughout. Further, the TGI with A498 renal, in the experiment with MALME-3M melanoma, in the experiment with NCI-H460 lung, with SNB-75 CNS, in the experiment with SK-MEL-2 melanoma and in the experiment on UO-31 renal was over 100 µM throughout. For the same molecule, the TGI with OVCAR-8 ovarian, with SR leukemia and in the experiment on MDA-MB-435 was over 100 µM throughout.

With `Nc1cc2c(c3ccccc13)C(CCl)CN2C(=O)c1cc2cc(NC(=O)Nc3ccc4[nH]c(C(=O)N5CC(CCl)c6c5cc(N)c5ccccc65)cc4c3)ccc2[nH]1` (centres undefined), the TGI is 1.02 µM with NCI-H23 lung; 6.38 µM in the experiment with EKVX NSCLC; over 100 µM in the experiment on SN12C renal; 2.41 µM with OVCAR-3 ovarian; 2.16 µM in the experiment with MDA-MB-231 breast; over 23.3 µM with RPMI-8226 leukemia. The TGI in the experiment with A498 renal is 0.832 µM; in the experiment on MALME-3M melanoma, 2.03 µM; with NCI-H460 lung, over 100 µM; in the experiment with SNB-75 CNS, 0.73 µM; with SK-MEL-2 melanoma, 2.17 µM; in the experiment with UO-31 renal it was 1.4 µM. Also, the TGI in the experiment on SR leukemia came to 1.13 µM; with MDA-MB-435 it was 4.33 µM.

For the molecule `Clc1sc(Cl)c2c1[C@@H](Cl)C[C@@H]2Cl`, the TGI in the experiment on NCI-H23 lung, with EKVX NSCLC, in the experiment on SN12C renal, in the experiment with OVCAR-3 ovarian, with MDA-MB-231 breast and in the experiment on A498 renal was over 100 µM each time. Besides, the TGI in the experiment with MALME-3M melanoma, in the experiment with NCI-H460 lung, in the experiment with SNB-75 CNS, in the experiment on SK-MEL-2 melanoma, in the experiment on UO-31 renal and in the experiment with OVCAR-8 ovarian was over 100 µM throughout. The TGI in the experiment on SR leukemia and in the experiment on MDA-MB-435 was over 100 µM throughout.

On to `N#CC1(C#N)C(C#N)(C#N)C1(C#N)C(N)=O`, for which the TGI in the experiment on NCI-H23 lung, in the experiment on EKVX NSCLC, with SN12C renal, in the experiment on MDA-MB-231 breast, in the experiment on RPMI-8226 leukemia and with HL-60(TB) leukemia was over 100 µM throughout. Also, the TGI in the experiment with A498 renal, with MALME-3M melanoma, in the experiment on NCI-H460 lung, in the experiment on SK-MEL-2 melanoma, in the experiment with UO-31 renal and in the experiment on OVCAR-8 ovarian was over 100 µM throughout. Moreover, the TGI in the experiment on SR leukemia and in the experiment with MDA-MB-435 was over 100 µM each time.

Consider `CCn1c(=O)c2nc(SC)sc2n(-c2ccc(C)cc2)c1=O`, for which the TGI in the experiment with NCI-H23 lung, in the experiment on EKVX NSCLC, with SN12C renal, with OVCAR-3 ovarian, with MDA-MB-231 breast and in the experiment with RPMI-8226 leukemia was over 100 µM in each case. Moreover, the TGI in the experiment on HL-60(TB) leukemia was over 100 µM; in the experiment on A498 renal, over 100 µM; in the experiment on MALME-3M melanoma it was over 81.7 µM; in the experiment with NCI-H460 lung it was over 100 µM; with SNB-75 CNS it was over 95.1 µM; in the experiment on SK-MEL-2 melanoma, over 100 µM. Moreover, the TGI with UO-31 renal, with OVCAR-8 ovarian and with SR leukemia was over 100 µM throughout. Also, the GI50 in the experiment on EKVX NSCLC is 71.4 µM; in the experiment on A498 renal, 28.2 µM.

Take `Cc1cccc2c(N)c3cccc(C(=O)NCC[N+](C)(C)Cc4ccc([N+](=O)[O-])s4)c3nc12`: the TGI was 21.9 µM in the experiment with NCI-H23 lung; 41.5 µM in the experiment on EKVX NSCLC; 49 µM in the experiment with SN12C renal; 49.6 µM in the experiment with OVCAR-3 ovarian; 21.3 µM with MDA-MB-231 breast; 34.1 µM in the experiment with RPMI-8226 leukemia. In addition, the TGI in the experiment with A498 renal is 23.6 µM; in the experiment with MALME-3M melanoma, 25 µM; in the experiment on NCI-H460 lung, 16.5 µM; in the experiment on SNB-75 CNS, 43.8 µM; in the experiment with SK-MEL-2 melanoma, over 77.6 µM; in the experiment on UO-31 renal, over 74.7 µM. The values for the TGI with OVCAR-8 ovarian, in the experiment with SR leukemia and in the experiment on MDA-MB-435 were 42.9 µM, 5.7 µM and over 63.9 µM, respectively.

In the case of `Cn1nc2ccc(Nc3cc(=O)[nH]c4ccc5nn(C)nc5c34)cc2n1`, the TGI in the experiment with NCI-H23 lung, in the experiment with EKVX NSCLC, in the experiment on SN12C renal, in the experiment on OVCAR-3 ovarian, in the experiment on MDA-MB-231 breast and in the experiment with A498 renal was over 100 µM throughout. Further, the TGI in the experiment with MALME-3M melanoma, in the experiment with NCI-H460 lung, in the experiment on SNB-75 CNS, in the experiment on SK-MEL-2 melanoma, in the experiment with UO-31 renal and in the experiment with OVCAR-8 ovarian was over 100 µM in each case. Also, the TGI in the experiment on SR leukemia and with MDA-MB-435 was over 100 µM in each case.

As to `CCCC[C@@H](C)/C=C1\CN2CCC[C@H]2[C@@](C)(OCc2ccccc2)[C@@H]1O`, the TGI is over 50 µM with NCI-H23 lung; over 50 µM with EKVX NSCLC; over 50 µM in the experiment on SN12C renal; over 28.7 µM in the experiment with OVCAR-3 ovarian; over 50 µM in the experiment with MDA-MB-231 breast; over 23.7 µM with RPMI-8226 leukemia. Also, the TGI is over 50 µM in the experiment with A498 renal; over 50 µM in the experiment on MALME-3M melanoma; over 50 µM with NCI-H460 lung; over 50 µM with SNB-75 CNS; over 50 µM in the experiment on SK-MEL-2 melanoma; over 16.6 µM with UO-31 renal. The TGI in the experiment with OVCAR-8 ovarian, in the experiment with SR leukemia and in the experiment on MDA-MB-435 was over 50 µM throughout.

`CC(C)(C)OC(=O)NC12C3C4C1C1C2C3C41NC(=O)OC(C)(C)C` (centres undefined): the TGI in the experiment on NCI-H23 lung is over 100 µM; with EKVX NSCLC, over 100 µM; in the experiment on SN12C renal it was over 100 µM; in the experiment with OVCAR-3 ovarian, over 100 µM; in the experiment on MDA-MB-231 breast, 92.1 µM; with HL-60(TB) leukemia, 53.9 µM. Besides, the TGI with A498 renal, in the experiment with NCI-H460 lung, in the experiment with SK-MEL-2 melanoma, with UO-31 renal, with OVCAR-8 ovarian and in the experiment on SR leukemia was over 100 µM each time. In the experiment on MDA-MB-435, this molecule came in with a TGI of over 100 µM.

As to `COC(C/C(=C/CO[Si](C(C)C)(C(C)C)C(C)C)C(=O)N(COCC[Si](C)(C)C)c1ccccc1I)OC`, the TGI in the experiment with NCI-H23 lung is 79.5 µM; with SN12C renal, over 100 µM; with OVCAR-3 ovarian, 46 µM; in the experiment with MDA-MB-231 breast, over 100 µM; in the experiment with RPMI-8226 leukemia, over 100 µM; in the experiment on A498 renal it was over 100 µM. For the same molecule, the TGI is over 100 µM with NCI-H460 lung; over 100 µM in the experiment on SNB-75 CNS; 29.9 µM with SK-MEL-2 melanoma; over 100 µM in the experiment with UO-31 renal; over 100 µM in the experiment on OVCAR-8 ovarian; over 100 µM in the experiment on SR leukemia. In addition, the TGI in the experiment on MDA-MB-435 amounted to 29.1 µM.
